Test results taken from US12503438B2, “Compounds for the treatment of kinase-dependent disorders” (Exelixis, Inc., priority 2019, dated 2025).

Assays:
Human Mer = target: T1, Human Mer (Homo sapiens, UniProt Q12866); test: Human Mer kinase assay (33P-phosphoryl transfer radiometric, KinaseProfiler); settings: biochemical activity; 10 μM ATP
T1 construct: Human Mer (residues R557-E882 with H628Q and R794A, 0.7 nM); purchased Eurofins Pharma Discovery Services UK Limited (KinaseProfiler service)
T1 sequence (Q12866 557-882 limits assumed): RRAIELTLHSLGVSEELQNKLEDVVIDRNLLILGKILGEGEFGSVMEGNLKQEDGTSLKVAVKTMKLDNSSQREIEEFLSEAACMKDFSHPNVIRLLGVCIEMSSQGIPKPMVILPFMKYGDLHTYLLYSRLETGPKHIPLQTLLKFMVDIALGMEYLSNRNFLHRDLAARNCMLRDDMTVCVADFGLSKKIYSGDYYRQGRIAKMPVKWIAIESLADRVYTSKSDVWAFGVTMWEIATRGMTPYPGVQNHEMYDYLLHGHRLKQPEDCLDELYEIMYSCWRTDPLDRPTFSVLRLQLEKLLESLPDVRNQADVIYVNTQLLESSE
Protocol: Kinase activity and compound inhibition were investigated using the ^33P-Phosphoryl transfer radiometric kinase assay, performed using the KinaseProfiler™ service of Eurofins Pharma Discovery Services UK Limited. Dose-response experiments were performed using nine compound concentrations in a 96-well microtiter plate. For each assay, all compounds were prepared to a 50× final assay concentration (50 μM) in 100% DMSO, then diluted in a half-log series, with the final top concentration at 1 μM. This working stock of the compound was added to the assay well as the first component in the reaction, followed by the remaining components as detailed in the following assay protocols below. The positive control wells (100% kinase activity) contain all components of the reaction including 2% DMSO (control for solvent effects), except the compound of interest. Blank wells contain all components of the reaction, with the reference inhibitor, staurosporine. This reference compound was used to abolish kinase activity and generated the 0% kinase activity base-line. IC50 values were calculated by nonlinear regression analysis using the sigmoidal dose-response (variable slope) curve fit on XLFit version 5.3 (ID Business Solutions).
Human Mer (residues R557-E882 with H628Q and R794A, 0.7 nM) was incubated with 8 mM MOPS pH 7.0, 0.2 mM EDTA, 30 mM NaCl, 250 μM GGMEDIYFEFMGGKKK, 10 mM magnesium acetate and 10 μM [y-^33P-ATP]. The reaction was initiated by the addition of the Mg/ATP mix. After incubation for 40 minutes at room temperature, the reaction was stopped by the addition of phosphoric acid to a concentration of 0.5%. A reaction aliquot of 10 μL was then spotted onto a P30 filtermat and washed four times for 4 minutes in 0.425% phosphoric acid and once in methanol prior to drying and scintillation counting. Incorporated ^33P was measured using the Wallac Microbeta scintillation counter (Perkin Elmer).

Mer = target: T2, Mer (Homo sapiens, UniProt Q12866); test: Mer autophosphorylation ELISA in transient transfected 293A cells; assay type: cell-based; settings: cellular activity; MERTK-transfected 293A cells, phospho-Mer ELISA
T2 construct: host or cells: 293A cells (Thermo Fisher #R70507)
T2 sequence (Q12866 21-999): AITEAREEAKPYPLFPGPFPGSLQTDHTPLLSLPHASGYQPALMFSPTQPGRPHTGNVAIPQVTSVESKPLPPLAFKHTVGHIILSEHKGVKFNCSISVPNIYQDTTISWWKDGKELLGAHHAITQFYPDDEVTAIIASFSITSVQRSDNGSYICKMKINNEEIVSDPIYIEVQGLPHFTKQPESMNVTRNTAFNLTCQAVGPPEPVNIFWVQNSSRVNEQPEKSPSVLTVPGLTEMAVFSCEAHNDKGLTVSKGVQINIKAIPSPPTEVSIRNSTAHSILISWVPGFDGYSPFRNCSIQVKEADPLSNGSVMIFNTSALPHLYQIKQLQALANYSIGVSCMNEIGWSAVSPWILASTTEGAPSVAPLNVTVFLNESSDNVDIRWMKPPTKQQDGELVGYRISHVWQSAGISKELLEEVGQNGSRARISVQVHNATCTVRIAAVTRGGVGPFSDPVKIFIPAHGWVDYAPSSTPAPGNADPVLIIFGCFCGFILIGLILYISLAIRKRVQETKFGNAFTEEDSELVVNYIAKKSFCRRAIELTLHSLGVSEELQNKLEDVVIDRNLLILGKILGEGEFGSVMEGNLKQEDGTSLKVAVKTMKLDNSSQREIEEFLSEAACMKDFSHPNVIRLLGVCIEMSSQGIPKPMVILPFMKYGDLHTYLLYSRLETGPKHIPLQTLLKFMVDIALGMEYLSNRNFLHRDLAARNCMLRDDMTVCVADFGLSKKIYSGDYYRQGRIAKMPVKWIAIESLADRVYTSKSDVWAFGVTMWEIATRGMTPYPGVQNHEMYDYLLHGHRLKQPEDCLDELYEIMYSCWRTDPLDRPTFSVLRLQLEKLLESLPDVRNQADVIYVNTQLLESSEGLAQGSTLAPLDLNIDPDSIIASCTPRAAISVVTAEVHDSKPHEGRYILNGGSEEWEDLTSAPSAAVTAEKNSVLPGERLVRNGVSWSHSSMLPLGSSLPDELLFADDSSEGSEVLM
Procedure, shortened: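 293A cells transiently transfected with human MERTK DNA, then treated 1 h with 8-point compound dilutions in serum-free medium (0.3% DMSO). Phospho-Mer in lysates quantified by sandwich ELISA against phospho-Mer standard; normalised to DMSO (100%) and reference inhibitor (0%), IC50 from 4-parameter logistic fit.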

| IC50 (Human Mer) | IC50 (Mer) | SMILES |
| --- | --- | --- |
| ≤ 10 nM | 10 to 100 nM | O=C(Nc1ccc(F)cc1)C1(C(=O)Nc2ccc(Oc3ccnc4cc(-c5ccn(C(F)F)n5)ccc34)cc2)CC1 [Compound 84, 1-N-[4-[7-[1-(Difluoromethyl)pyrazol-3-yl]quinolin-4-yl]oxyphenyl]-1-N′-(4-fluorophenyl)cyclopropane-1,1-dicarboxamide] |
| ≤ 10 nM | 10 to 100 nM | O=C(Nc1ccc(F)cc1)C1(C(=O)Nc2ccc(Oc3ccnc4cc(-c5cnn(C6CCNCC6)c5)ccc34)cc2)CC1 [Compound 60, 1-N′-(4-Fluorophenyl)-1-N-[4-[7-(1-piperidin-4-ylpyrazol-4-yl)quinolin-4-yl]oxyphenyl]cyclopropane-1,1-dicarboxamide] |
| ≤ 10 nM | 10 to 100 nM | O=C(Nc1ccc(F)cc1)C1(C(=O)Nc2ccc(Oc3ccnc4cc(-c5ncco5)ccc34)cc2)CC1 [Compound 66, 1-N′-(4-Fluorophenyl)-1-N-[4-[7-(1,3-oxazol-2-yl)quinolin-4-yl]oxyphenyl]cyclopropane-1,1-dicarboxamide] |
| ≤ 10 nM | 10 to 100 nM | CNC(=O)c1cc2c(Oc3ccc(NC(=O)C4(C(=O)Nc5ccc(F)cc5)CC4)cc3)ccnc2cc1-c1cnn(C)c1 [Compound 77, 1-N′-(4-Fluorophenyl)-1-N-[4-[6-(methylcarbamoyl)-7-(1-methylpyrazol-4-yl)quinolin-4-yl]oxyphenyl]cyclopropane-1,1-dicarboxamide] |
| ≤ 10 nM | 10 to 100 nM | Cc1cc(F)cc(C)c1NC(=O)C1(C(=O)Nc2ccc(Oc3ccnc4cc(-c5cnn(C)c5)ccc34)cc2)CC1 [Compound 82, 1-N′-(4-Fluoro-2,6-dimethylphenyl)-1-N-[4-[7-(1-methylpyrazol-4-yl)quinolin-4-yl]oxyphenyl]cyclopropane-1,1-dicarboxamide] |
| ≤ 10 nM | 10 to 100 nM | O=C(Nc1ccc(F)cc1)C1(C(=O)Nc2ccc(Oc3ccnc4cc(-c5ccnnc5)ccc34)cc2)CC1 [Compound 28, 1-N′-(4-Fluorophenyl)-1-N-[4-(7-pyridazin-4-ylquinolin-4-yl)oxyphenyl]cyclopropane-1,1-dicarboxamide] |
| ≤ 10 nM | 100 to 300 nM | O=C(Nc1ccc(F)cc1)C1(C(=O)Nc2ccc(Oc3ccnc4cc(-c5cnn(C(F)(F)F)c5)ccc34)cc2)CC1 [Compound 12, 1-N′-(4-Fluorophenyl)-1-N-[4-[7-[1-(trifluoromethyl)pyrazol-4-yl]quinolin-4-yl]oxyphenyl]cyclopropane-1,1-dicarboxamide] |
| ≤ 10 nM | ≤ 10 nM | O=C(Nc1ccc(F)cc1)C1(C(=O)Nc2ccc(Oc3ccnc4cc(-c5cnn(C6CC6)c5)ccc34)cc2)CC1 [Compound 22, 1-N-[4-[7-(1-Cyclopropylpyrazol-4-yl)quinolin-4-yl]oxyphenyl]-1-N′-(4-fluorophenyl)cyclopropane-1,1-dicarboxamide] |
| ≤ 10 nM | ≤ 10 nM | O=C(Nc1ccc(F)cc1)C1(C(=O)Nc2ccc(Oc3ccnc4cc(-c5cnn(C6COC6)c5)ccc34)cc2)CC1 [Compound 24, 1-N′-(4-Fluorophenyl)-1-N-[4-[7-[1-(oxetan-3-yl)pyrazol-4-yl]quinolin-4-yl]oxyphenyl]cyclopropane-1,1-dicarboxamide] |
| ≤ 10 nM | 10 to 100 nM | O=C(Nc1ccc(F)cc1)C1(C(=O)Nc2ccc(Oc3ccnc4cc(-c5cccnc5)ccc34)cc2)CC1 [Compound 25, 1-N′-(4-Fluorophenyl)-1-N-[4-(7-pyridin-3-ylquinolin-4-yl)oxyphenyl]cyclopropane-1,1-dicarboxamide] |
| ≤ 10 nM | ≤ 10 nM | O=C(Nc1ccc(F)cc1)C1(C(=O)Nc2ccc(Oc3ccnc4cc(-c5cnn(CCF)c5)ccc34)cc2)CC1 [Compound 14, 1-N-[4-[7-[1-(2-Fluoroethyl)pyrazol-4-yl]quinolin-4-yl]oxyphenyl]-1-N′-(4-fluorophenyl)cyclopropane-1,1-dicarboxamide] |
| ≤ 10 nM | ≤ 10 nM | CC(=O)N1CCC(n2cc(-c3ccc4c(Oc5ccc(NC(=O)C6(C(=O)Nc7ccc(F)cc7)CC6)cc5)ccnc4c3)cn2)CC1 [Compound 62, 1-N-[4-[7-[1-(1-Acetylpiperidin-4-yl)pyrazol-4-yl]quinolin-4-yl]oxyphenyl]-1-N′-(4-fluorophenyl)cyclopropane-1,1-dicarboxamide] |
| ≤ 10 nM | ≤ 10 nM | O=C(Nc1ccc(F)cc1)C1(C(=O)Nc2ccc(Oc3ccnc4cc(-c5cn[nH]c5)ccc34)cc2)CC1 [Compound 67, 1-N′-(4-Fluorophenyl)-1-N-[4-[7-(1H-pyrazol-4-yl)quinolin-4-yl]oxyphenyl]cyclopropane-1,1-dicarboxamide] |
| ≤ 10 nM | ≤ 10 nM | Cn1cc(-c2ccc3c(Oc4ccc(NC(=O)C5(C(=O)Nc6ccc(F)cc6)CC5)cc4)ccnc3c2)cn1 [Compound 11, 1-N′-(4-Fluorophenyl)-1-N-[4-[7-(1-methylpyrazol-4-yl)quinolin-4-yl]oxyphenyl]cyclopropane-1,1-dicarboxamide] |
| ≤ 10 nM | ≤ 10 nM | COc1cc2c(Oc3ccc(NC(=O)C4(C(=O)Nc5ccc(F)cc5)CC4)cc3)ccnc2cc1-c1cnn(C)c1 [Compound 76, 1-N′-(4-Fluorophenyl)-1-N-[4-[6-methoxy-7-(1-methylpyrazol-4-yl)quinolin-4-yl]oxyphenyl]cyclopropane-1,1-dicarboxamide] |
| ≤ 10 nM | ≤ 10 nM | O=C(Nc1ccc(F)cc1)C1(C(=O)Nc2ccc(Oc3ccnc4cc(-c5cnn(CC(F)F)c5)ccc34)cc2)CC1 [Compound 15, 1-N-[4-[7-[1-(2,2-Difluoroethyl)pyrazol-4-yl]quinolin-4-yl]oxyphenyl]-1-N′-(4-fluorophenyl)cyclopropane-1,1-dicarboxamide] |
| ≤ 10 nM | 10 to 100 nM | O=C(Nc1ccc(F)cc1)C1(C(=O)Nc2ccc(Oc3ccnc4cc(-c5cnoc5)ccc34)cc2)CC1 [Compound 57, 1-N′-(4-Fluorophenyl)-1-N-[4-[7-(1,2-oxazol-4-yl)quinolin-4-yl]oxyphenyl]cyclopropane-1,1-dicarboxamide] |
| ≤ 10 nM | 10 to 100 nM | Cn1ncc(-c2ccc3c(Oc4ccc(NC(=O)C5(C(=O)Nc6ccc(F)cc6)CC5)cc4)ccnc3c2)n1 [Compound 86, 1-N′-(4-Fluorophenyl)-1-N-[4-[7-(2-methyltriazol-4-yl)quinolin-4-yl]oxyphenyl]cyclopropane-1,1-dicarboxamide] |
